The values below come from patent US20120083522A1, “MODULATION OF INFLAMMATORY RESPONSES BY FACTOR XI” (Isis Pharmaceuitcals, inc., priority 2009, published 2012).

Details of data set [1]: species or system Sprague-Dawley rats. The following applies: rat, in vivo, sc, 20 mg/kg. On the procedure:
The concentration of the full-length oligonucleotide as well as the total oligonucleotide concentration (including the degraded form) was measured. The method used is a modification of previously published methods (Leeds et al., 1996; Geary et al., 1999) which consist of a phenol-chloroform (liquid-liquid) extraction followed by a solid phase extraction. An internal standard (ISIS 355868, a 27-mer 2′-O-methoxyethyl modified phosphorothioate oligonucleotide, […], designated herein as SEQ ID NO: 270) was added prior to extraction. […] The results are presented in Tables 98 and 99, expressed as μg/g liver or kidney tissue.

The test system of data set [2] is human Factor XI mRNA. Nature of the data set: Antisense inhibition in HepG2 cells by microwalk gapmers, 75 nM, lipofectin (Example 3). Conditions: HepG2 cells, 75 nM, oligonucleotides targeted to nucleobases 1275 to 1318 of SEQ ID NO: 1. The format is cell-based. The procedure, abridged:
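HepG2 cells (10,000 per well) were transfected with 75 nM gapmer using lipofectin and treated for about 24 h. Factor XI mRNA was quantified by real-time PCR, normalized to RiboGreen total RNA and expressed as percent inhibition versus untreated controls.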

The test system of data set [3] is human Factor XI mRNA. The data set is described as follows: Antisense inhibition in HepG2 cells by microwalk gapmers, 8,000 nM, electroporation (Example 14). Conditions: HepG2 cells, 8,000 nM. In kind it is cell-based. The procedure, abridged: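 HepG2 cells electroporated with 8,000 nM 2′-MOE phosphorothioate gapmer (5-10-5, 5-8-5 or 6-8-6). Factor XI mRNA measured after ~24 h by qRT-PCR, normalised to RIBOGREEN total RNA. Reported as percent inhibition versus untreated cells.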

In data set [4] the test system is human Factor XI mRNA. Nature of the data set: Dose-dependent antisense inhibition in HepG2 cells, lipofectin (Example 2). In kind it is cell-based. The following applies: approximately 16 hours. On the procedure:
Cells were plated at a density of 10,000 cells per well and transfected using lipofectin reagent with 9.375 nM, 18.75 nM, 37.5 nM, 75 nM, and 150 nM concentrations of antisense oligonucleotide, as specified in Table 3. After a treatment period of approximately 16 hours, RNA was isolated from the cells and Factor XI mRNA levels were measured by quantitative real-time PCR. Human Factor XI primer probe set RTS 2966 (forward sequence: […], incorporated herein as SEQ ID NO: 3; reverse sequence: […], incorporated herein as SEQ ID NO: 4; probe sequence: TTGTCTACTGAAGCACACCCAAACAGGGAX, wherein X is the fluorophore, incorporated herein as SEQ ID NO: 5) was used to measure mRNA levels. Factor XI mRNA levels were adjusted according to total RNA content, as measured by RIBOGREEN®. Results are presented as percent inhibition of Factor XI, relative to untreated control cells.

Data set [5] deals with human Factor XI mRNA. The data set is described as follows: Dose-dependent inhibition and IC50 in HepG2 cells, electroporation (Example 15). In kind it is cell-based. On the procedure:
Cells were plated at a density of 20,000 cells per well and transfected using electroporation with 123.46 nM, 370.37 nM, 1,111.11 nM, 3,333.33 nM and 10,000 nM concentrations of antisense oligonucleotide, as specified in Table 52. After a treatment period of approximately 16 hours, RNA was isolated from the cells and Factor XI mRNA levels were measured by quantitative real-time PCR. Human Factor XI primer probe set RTS 2966 was used to measure mRNA levels. Factor XI mRNA levels were adjusted according to total RNA content, as measured by RIBOGREEN. Results are presented as percent inhibition of Factor XI, relative to untreated control cells.

Data set [6] relates to human Factor XI mRNA. Nature of the data set: Dose-dependent inhibition in HepG2 cells, lipofectin (Example 4). The format is cell-based. Conditions: 16 hours. The essentials:
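HepG2 cells at 10,000 per well were lipofectin-transfected with 9.375, 18.75, 37.5 or 75 nM antisense oligonucleotide for about 16 h. Factor XI mRNA was quantified by real-time PCR (primer probe set RTS 2966) and normalised to RIBOGREEN total RNA. Values are percent inhibition versus untreated cells.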

The test system of data set [7] is human Factor XI mRNA. The data set is described as follows: Dose-dependent inhibition in HepG2 cells, electroporation (Example 4). The following applies: 16 hours. The format is cell-based. The procedure, abridged: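 HepG2 cells electroporated with 0.7, 2.2, 6.7 or 20 μM antisense gapmer and harvested after ~16 h. Factor XI mRNA quantified by qRT-PCR (primer probe set RTS 2966), normalised to total RNA (RIBOGREEN). Reported as percent inhibition versus untreated control cells.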

e = 2'-O-(2-methoxyethyl) (MOE); d = 2'-deoxy (DNA)

In the case of “412223 (antisense ACAGTTTCTGGCAGGCCTCG; sugars from the 5' end e5 d10 e5, backbone and methylation of C not given here) [compound 412223]”, in data set [1], the “Half-life in the liver and kidney” value is on record as 22 days. Besides, the “% inhibition of human Factor XI mRNA levels” value (“% inhibition” for short) in the data set on human Factor XI mRNA [2] came out at 85%. Further, the “Percent inhibition of human Factor XI mRNA levels” value in the data set on human Factor XI mRNA [3] amounted to 62%. Moreover, the “percent inhibition of Factor XI” value in the data set on human Factor XI mRNA [4] (9.375 nM) amounted to 33%; in the data set on human Factor XI mRNA [4] (18.75 nM), 48%; with human Factor XI mRNA [4] (37.5 nM), 62%; in the data set with human Factor XI mRNA [4] (75 nM) it was 76%; in the data set with human Factor XI mRNA [4] (150 nM), 81%.

For “412224 (antisense GCATTGGTGCACAGTTTCTG; sugars from the 5' end e5 d10 e5, backbone and methylation of C not given here) [compound 412224]”, the “Half-life in the liver and kidney” value in data set [1] was 17 days. Also, the “% inhibition” value in the data set with human Factor XI mRNA [2] is reported as 93%. In addition, the “Percent inhibition of human Factor XI mRNA levels” value in the data set on human Factor XI mRNA [3] turned out to be 84%. Moreover, the “percent inhibition of Factor XI” value is 24% in the data set with human Factor XI mRNA [4] (9.375 nM); 45% in the data set with human Factor XI mRNA [4] (18.75 nM); 57% in the data set with human Factor XI mRNA [4] (37.5 nM); 70% in the data set with human Factor XI mRNA [4] (75 nM); 81% with human Factor XI mRNA [4] (150 nM).

Turning to “413481 (antisense GGTGCACAGTTTCTGGCAGG; sugars from the 5' end e5 d10 e5, backbone and methylation of C not given here) [compound 413481]”, the “Half-life in the liver and kidney” value in data set [1] is on record as 21 days. The “Percent inhibition of human Factor XI mRNA levels” value in the data set on human Factor XI mRNA [3] amounted to 82%. Besides, the “percent inhibition of Factor XI” value turned out to be 22% in the data set on human Factor XI mRNA [4] (9.375 nM); 38% in the data set with human Factor XI mRNA [4] (18.75 nM); 56% in the data set with human Factor XI mRNA [4] (37.5 nM); 67% in the data set on human Factor XI mRNA [4] (75 nM); 83% in the data set on human Factor XI mRNA [4] (150 nM).

For “416851 (antisense GTGCACAGTTTCTGGCAGGC; 5-10-5 gapmer, wing sugar chemistry not given here, further chemistry not given here) [compound 416851]”, the “percent inhibition of Factor XI mRNA” value is 13% in the data set on human Factor XI mRNA [5] (electroporation, 123.47 nM); 35% in the data set with human Factor XI mRNA [5] (electroporation, 370.37 nM); 36% with human Factor XI mRNA [5] (electroporation, 1,111.11 nM); 64% in the data set with human Factor XI mRNA [5] (electroporation, 3,333.33 nM); 72% in the data set with human Factor XI mRNA [5] (electroporation, 10,000.0 nM). For the same substance, in data set [1], the “Half-life in the liver and kidney” value is reported as 24 days. Moreover, the “% inhibition” value in the data set with human Factor XI mRNA [2] stood at 88%. For the same substance, the “Percent inhibition of human Factor XI mRNA levels” value in the data set with human Factor XI mRNA [3] stood at 89%.

In the case of “416852 (antisense TGGTGCACAGTTTCTGGCAG; 5-10-5 gapmer, wing sugar chemistry not given here, further chemistry not given here) [compound 416852]”, the “Half-life in the liver and kidney” value in data set [1] is on record as 28 days. In addition, in the data set with human Factor XI mRNA [2], the “% inhibition” value is listed as 84%. For the same substance, the “Percent inhibition of human Factor XI mRNA levels” value in the data set with human Factor XI mRNA [3] is reported as 87%.

“416856 (antisense GGCATTGGTGCACAGTTTCT; 5-10-5 gapmer, wing sugar chemistry not given here, further chemistry not given here) [compound 416856]”: the “percent inhibition of Factor XI mRNA” value was determined as 12% with human Factor XI mRNA [5] (electroporation, 123.47 nM); 23% with human Factor XI mRNA [5] (electroporation, 370.37 nM); 35% in the data set with human Factor XI mRNA [5] (electroporation, 1,111.11 nM); 59% in the data set on human Factor XI mRNA [5] (electroporation, 3,333.33 nM); 83% in the data set with human Factor XI mRNA [5] (electroporation, 10,000.0 nM). The “percent inhibition of Factor XI mRNA, relative to untreated control cells” value in the data set with human Factor XI mRNA [6] (9.375 nM) is listed as 21%; with human Factor XI mRNA [6] (18.75 nM), 45%; with human Factor XI mRNA [6] (37.5 nM) it was 58%; in the data set on human Factor XI mRNA [6] (75 nM), 74%; in the data set with human Factor XI mRNA [7] (0.7 μM), 0%; in the data set on human Factor XI mRNA [7] (2.2 μM), 29%. In addition, the “percent inhibition of Factor XI mRNA, relative to untreated control cells” value in the data set on human Factor XI mRNA [7] (6.7 μM) was 47%; in the data set with human Factor XI mRNA [7] (20 μM), 93%. Besides, the “Half-life in the liver and kidney” value in data set [1] came out at 19 days. In addition, in the data set on human Factor XI mRNA [2], the “% inhibition” value is reported as 95%. The “Percent inhibition of human Factor XI mRNA levels” value in the data set on human Factor XI mRNA [3] turned out to be 84%.

Take “416859 (antisense GACGGCATTGGTGCACAGTT; 5-10-5 gapmer, wing sugar chemistry not given here, further chemistry not given here) [compound 416859]”: in data set [1], the “Half-life in the liver and kidney” value is 19 days. Moreover, the “% inhibition” value in the data set on human Factor XI mRNA [2] worked out at 90%. Moreover, the “Percent inhibition of human Factor XI mRNA levels” value with human Factor XI mRNA [3] is 85%.

Turning to “416860 (antisense CGGACGGCATTGGTGCACAG; 5-10-5 gapmer, wing sugar chemistry not given here, further chemistry not given here) [compound 416860]”, the “percent inhibition of Factor XI mRNA” value with human Factor XI mRNA [5] (electroporation, 123.47 nM) worked out at 0%; with human Factor XI mRNA [5] (electroporation, 370.37 nM) it was 28%; in the data set on human Factor XI mRNA [5] (electroporation, 1,111.11 nM), 39%; in the data set on human Factor XI mRNA [5] (electroporation, 3,333.33 nM), 41%; with human Factor XI mRNA [5] (electroporation, 10,000.0 nM), 40%. Further, the “Half-life in the liver and kidney” value in data set [1] is 21 days. In addition, the “% inhibition” value in the data set with human Factor XI mRNA [2] is listed as 88%. Also, in the data set with human Factor XI mRNA [3], the “Percent inhibition of human Factor XI mRNA levels” value came to 89%.

For “416861 (antisense GCGGACGGCATTGGTGCACA; 5-10-5 gapmer, wing sugar chemistry not given here, further chemistry not given here) [compound 416861]”, the “percent inhibition of Factor XI mRNA” value with human Factor XI mRNA [5] (electroporation, 123.47 nM) turned out to be 0%; in the data set with human Factor XI mRNA [5] (electroporation, 370.37 nM), 15%; in the data set on human Factor XI mRNA [5] (electroporation, 1,111.11 nM) it was 27%; with human Factor XI mRNA [5] (electroporation, 3,333.33 nM), 66%; in the data set with human Factor XI mRNA [5] (electroporation, 10,000.0 nM) it was 80%. In addition, in data set [1], the “Half-life in the liver and kidney” value is recorded as 25 days. In the data set on human Factor XI mRNA [2], the “% inhibition” value stood at 92%. Further, the “Percent inhibition of human Factor XI mRNA levels” value in the data set on human Factor XI mRNA [3] is given as 90%.

Consider “416863 (antisense CAGCGGACGGCATTGGTGCA; 5-10-5 gapmer, wing sugar chemistry not given here, further chemistry not given here) [compound 416863]”, for which, in data set [1], the “Half-life in the liver and kidney” value came out at 20 days. Besides, the “% inhibition” value in the data set with human Factor XI mRNA [2] is given as 83%. Also, the “Percent inhibition of human Factor XI mRNA levels” value in the data set on human Factor XI mRNA [3] was found to be 86%.

“416866 (antisense CTGGCAGCGGACGGCATTGG; 5-10-5 gapmer, wing sugar chemistry not given here, further chemistry not given here) [compound 416866]”: the “Half-life in the liver and kidney” value in data set [1] was determined as 16 days. The “% inhibition” value in the data set on human Factor XI mRNA [2] is 88%. The “Percent inhibition of human Factor XI mRNA levels” value with human Factor XI mRNA [3] stood at 84%.

Consider “416867 (antisense ACTGGCAGCGGACGGCATTG; 5-10-5 gapmer, wing sugar chemistry not given here, further chemistry not given here) [compound 416867]”, for which the “Half-life in the liver and kidney” value in data set [1] came out at 19 days. The “% inhibition” value in the data set with human Factor XI mRNA [2] is reported as 83%. Also, in the data set with human Factor XI mRNA [3], the “Percent inhibition of human Factor XI mRNA levels” value amounted to 85%.
